The values that follow come from patent US12582614B2, “Composition for preventing, alleviating or treating sarcopenia, containing D-ribo-2-hexulose as active ingredient” (KYUNGPOOK NATIONAL UNIVERSITY INDUSTRY-ACADEMIC COOPERATION …, priority 2021, dated 2026).

What all share (assay type): in vivo, C57BL/6J male mice
For data set [1], the system named is Mitochondrial respiratory chain complexes. The data set can be described thus: BN-PAGE of mitochondrial respiratory chain complexes. To be noted: quadriceps mitochondria, vs NC group. On the procedure: Mitochondria were isolated from the quadriceps muscle using the Potter-Elvehjem method. To extract respiratory SCs, a sample buffer cocktail was prepared using 8 μL of digitonin (Invitrogen, USA) per 50 μg of protein, 4×5 μL of a sample buffer (Invitrogen, USA) per 50 μg of protein, and 7 μL of water per 50 μg of protein. Thereafter, the solution was mixed with mitochondria. The BN-PAGE run and transfer were performed. An Ox-Phos Rodent WB antibody cocktail (Invitrogen, USA) was reacted at room temperature for 2 hours. Then, a secondary antibody solution Alk-Phos (Invitrogen, USA) was reacted at room temperature for an hour. Immunoreactive bands were developed using chromogen (BCIP/NBT). Then, the bands in a final state were checked.

The nature of data set [2]: Body weight, food intake and organ weights of aged mice fed 3% D-ribo-2-hexulose diet for 12 weeks. The method, then:
Twenty-one 48-week-old C57BL/6J male mice and seven 8-week-old C57BL/6J male mice were purchased from JA BIO Inc. (Korea). The purchased animals were raised in a breeding room with a controlled temperature (20 to 23° C.) and a light/dark cycle (a 12-hour cycle), and were provided with pelletized commercial non-purified feed for the first week.
Specifically, a negative control group (NC, n=7, American Institute of Nutrition AIN-93G Semisynthetic diet); a D-ribo-2-hexulose-treated group (D-ribo-2-hexulose; DRH, n=7; a portion of cellulose in AIN-93G was replaced with 3% D-ribo-2-hexulose). […] The dose of D-ribo-2-hexulose was set at 3% based on previous animal studies. In the previous studies, the dose of D-ribo-2-hexulose was determined to be 3% in order to investigate a biological effect at a lower dose than the dose. During the experiment, the mice had free access to distilled water, and the food intakes and body weights of the mice were measured weekly, and blood glucose was measured once every 4 weeks. All animal experiments were approved by the Animal Research Ethics Committee of KyungPook National University (Approval Number: KNU-2020-109).

Data set [3] has as its system Akt, AMPK, PI3K, mTOR, PGC1-α, and phosphorylated variants thereof. The data set can be described thus: Western blotting of protein levels of muscle enhancement factors. The following applies: DRH group vs NC group. The method, then:
The amount of cytoplasmic and membrane proteins was quantified according to the Bradford method. Thereafter, a protein load was applied onto a 10% SDS-polyacrylamide gel, transferred to a Tris-glycine electrophoresis buffer for an hour, and then electrophoresed. The positions of the bands were confirmed using a Ponceau solution, blocking (5% skim milk in TBS/0.1% Tween-20) was performed at room temperature for 60 minutes in order to reduce non-specific reactions to the membrane. Then, the samples were reacted with a primary antibody overnight at 4° C.
Each of the antibodies was reacted with 5% skim milk diluted in the following ratios: Rabbit anti-mouse PGC1-α (1:1,000; Santa Cruz, USA), rabbit anti-mouse α-tubulin (1:1,000; Cell Signaling Technology, USA), rabbit anti-mouse p-Akt (1:1,000; Cell Signaling Technology, USA), rabbit anti-mouse Akt (1:1,000; Cell Signaling Technology, USA), rabbit anti-mouse p-PI3K (1:1,000; Cell Signaling Technology, USA), rabbit anti-mouse PI3K (1:1,000; Cell Signaling Technology), rabbit anti-mouse mTOR (1:1,000; Cell Signaling Technology, USA), rabbit anti-mouse TNF-α (1:1,000; Cell Signaling Technology, USA), rabbit anti-mouse adiponectin (1:1,000; Cell Signaling Technology, USA), rabbit anti-mouse haptoglobin (1:1,000; Abcam, USA), rabbit anti-mouse SCD1 (1:1,000; Cell Signaling Technology, USA), goat anti-mouse CerS1 (1:1,000; Novus Biologicals Ltd., USA), and rabbit anti-mouse NF-κB (1:000; Cell Signaling Technology, USA). The protein bands were washed, and the membrane was then reacted with a primary antibody in a TBST buffer (25 mM Tris-base, 155 mM NaCl, 0.1% Tween-20) in the presence of anti-rabbit IgG (1:1,000; Amersham Ltd., UK) or anti-goat IgG (1:1,000; ABcam Inc., USA) secondary antibodies for 30 minutes, and reacted at room temperature for an hour. Then, the membrane was washed again with a TBST buffer for 30 minutes. Immunoreactive bands were developed on a film using an ECL kit (Pierce Chemical Co., IL) to check the bands in a final state.

In data set [4] the test system is differentially expressed genes (DEG). As to the kind of experiment: RT-PCR and Western blotting verification of differentially expressed genes. The following applies: verification of mRNA-seq results. The method, then: After total RNA was isolated, total complementary DNA (cDNA) was synthesized. For real-time PCR analysis, template cDNA was diluted with RNAse-free water and used at a concentration of 25 ng/μL. Then, gene expression was analyzed using a QuantitTeck SYBR Green PCR kit (QIAGEN, Germany).
Each of the reaction solutions consisted of 10 μL of SYBR Green, 2 μL of a template, and 200 μM primers. RNAse-free water was added to a final volume of 20 μL, and reacted at 94° C. for 15 seconds, and then 58° C. and 72° C. for 30 seconds. The reaction solution was reacted 40 times at 65° C. for 30 seconds at 15 seconds per cycle. In this case, by monitoring the fluorescence signal for each cycle and analyzing the resulting threshold cycle (Ct), mRNA expression between the respective experimental groups was quantitatively analyzed using a CFX96 Real-time system (Bio-Rad, USA). […]
The amount of cytoplasmic and membrane proteins was quantified according to the Bradford method. […]

For data set [5], the system named is aged mice. The data set can be described thus: Fat and muscle weight.
Data set [6] has as its system TNF-α. As to the kind of experiment: Western blotting of TNF-α expression. To be noted: DRH group vs NC group. On the procedure: The amount of cytoplasmic and membrane proteins was quantified according to the Bradford method. Thereafter, a protein load was applied onto a 10% SDS-polyacrylamide gel, transferred to a Tris-glycine electrophoresis buffer for an hour, and then electrophoresed. The positions of the bands were confirmed using a Ponceau solution, blocking (5% skim milk in TBS/0.1% Tween-20) was performed at room temperature for 60 minutes in order to reduce non-specific reactions to the membrane. Then, the samples were reacted with a primary antibody overnight at 4° C. […]

Setting [7] is: DRH group, aged mice, AIN-93G + 3% DRH 12 weeks, Mean ± SD.

As for `O=C(CO)[C@H](O)[C@H](O)[C@H](O)CO` [DRH, D-ribo-2-hexulose], the “mitochondrial respiratory chain Complex IV” value in data set [1] is given as “significantly increased”. Further, in data set [2] (DRH group vs NC group), the final body weight result was “significantly lower”, the kidney weight entry is “increased”, the liver weight entry is “decreased” and the spleen weight result is listed as “no significant difference”. Also, in data set [2] (DRH group vs NC group), the weight gain entry was “significantly lower”. In data set [2] (setting [7]), the “Final BW” value was 37.59 ± 0.56^$$ g, the “Total BWG” value is given as 1.36 ± 0.20^$$$ g, the kidney weight is listed as 1.10 ± 0.02^$$ g per 100 g BW and the liver weight is listed as 3.71 ± 0.07^$ g per 100 g BW. Moreover, the spleen weight in data set [2] (setting [7]) was 0.20 ± 0.02 ^ g per 100 g BW. In data set [3], the “protein level of AMPK and phosphorylated variant” value was “significantly increased”; the “protein level of Akt and phosphorylated variant” value was “significantly increased”; the “protein level of PGC1-α” value was “significantly increased”; the “protein level of PI3K and phosphorylated variant” value is “significantly increased”. Further, in data set [3], the “protein level of mTOR and phosphorylated variant” value is reported as “significantly increased”. Further, the “RT-PCR analysis and Western blotting on DEG” value in data set [4] was “consistent with those obtained by mRNA-seq analysis”. Besides, in data set [5] (DRH group vs NC group), the “ratio of the total weight of muscle tissue to the total weight of adipose tissue” value is on record as “significantly increased” and the “total weight of muscle tissue” value was “no significant difference”. In addition, the fat weight entry in data set [5] (DRH supplementation) is on record as “reduced”. Also, the TNF-α expression result in data set [6] is listed as “significantly decreased”.
